Experimental data reported in patent US20210323901A1, “METHOD OF STORING AND/OR TRANSPORTING OXO ALCOHOL” (SABIC GLOBAL TECHNOLOGIES B.V., priority 2018, published 2021).

Legend:
[1] = Solubility of antioxidants in 2-ethylhexanol; conditions: 25° C., amount varied from 100 ppm to 1,000 ppm
Experimental: The solubility of different antioxidants in oxo alcohol was analyzed. Alkanox™ 240, Lowinox™ CA22, and Anox™ 1315, were added to 2-ethylhexanol.

[2] = Stability: aldehyde impurity levels in 2-ethylhexanol admixed with antioxidant, heated at 50° C., analysed by GC; format: physicochemical; conditions: 10 ppm in 2-ethylhexanol, heated conditions (50° C.)
Experimental: Experimental trials were conducted in accordance with the present method. The effects of antioxidants on aldehyde impurity levels in 2-ethlyhexanol were analyzed. A fixed volume of 2-ethylhexanol was admixed with an antioxidant and was heated at 50° C. for three weeks in a hot metal block. The 50° C. temperature mimicked harsh weather conditions during which accelerated autoxidation can occur. At the end of each week (intervals of 168 hours), a sample was drawn and analyzed using gas chromatography (GC). A control sample (where antioxidant was not added) was also analyzed. Lowinox™ CA22 was further examined at lower concentrations of 10 ppm and 20 ppm.

[3] = Color analysis of plasticizers made from 2-ethylhexanol with antioxidant (Platinum-Cobalt Scale, ASTM D1209); format: physicochemical
Experimental: The oxo alcohol 2-ethylhexanol was mixed with different antioxidants (Anox™ 1315 and Lowinox™ CA22). Plasticizers dioctyl phthalate (DOP) and/or trioctyl trimellitate (TOTM) were then synthesized using the different 2-ethylhexanol mixtures. The DOP plasticizer was produced using a 2-ethylhexanol to phthalic acid molar ratio of 2.35 to 1. The TOTM plasticizer was produced using a 2-ethylhexanol to […] molar ratio of 3.5 to 1. The plasticizers were synthesized a temperature of 210° C. for a period of 4 hours. Phosphorous-based antioxidants, nitrogen-based antioxidants, and sulfur-based antioxidants were all found to be problematic. For example, it was observed during downstream application that when phosphorus-based antioxidants were used, initially poor solubility in the oxo alcohol was a problem and then corrosion of the reactor. Not to be limited by theory, it is believed that during the production of the plasticizers, the phosphorus-based antioxidant would be hydrolyzed, producing phosphorus acid, which corroded the reactor. Nitrogen-based antioxidants and sulfur-based antioxidants, on the other hand, adversely affected the color of the resultant plasticizers.
Color analysis of the resulting plasticizers was conducted using the Platinum-Cobalt Scale in accordance with ASTM D1209, as updated in 2011. The best in class specification for TOTM plasticizer is a score of 30 and for the DOP plasticizer is a score of 25 on the Platinum-Cobalt scale. As is shown in Table 3, trioctyl trimellitate and dioctyl phthalate were produced using 2-ethylhexanol comprising the specified antioxidant.

[4] = 2-ethylhexanol with 10 ppm antioxidant

Row | Time for which aldehyde growth was stopped [2] | Platinum-Cobalt score of resulting DOP [3, 4] | Platinum-Cobalt score of resulting TOTM [3, 4] | Platinum-Cobalt score of resulting TOTM ([3]; 2-ethylhexanol with 50 ppm antioxidant) | SMILES | Solubility in 2-ethylhexanol [1]
1 | – | – | – | – | CC(C)(C)c1ccc(OP(Oc2ccc(C(C)(C)C)cc2C(C)(C)C)Oc2ccc(C(C)(C)C)cc2C(C)(C)C)c(C(C)(C)C)c1 [Alkanox™ 240, phenol, 2,4-bis(1,1-dimetylethyl)-phosphite (3:1)] | not soluble
2 | over 3 weeks | 20 | 28 | 30 | Cc1cc(O)c(C(C)(C)C)cc1C(C)CC(c1cc(C(C)(C)C)c(O)cc1C)c1cc(C(C)(C)C)c(O)cc1C (stereo not drawn) [Lowinox™ CA22, 1,1,3-tris(2′-methyl-4′-hydroxy-5′-t-butylphenyl)butane] | soluble
